Measurements published in patent US10213451B2, “Methods and compounds for modulating the secretion or expression of adhesion proteins or angiopoietins of cells” (PACIFIC ARROW LIMITED, priority 2004, dated 2019).
Converted amounts (≈) assume the structure as drawn. Read-outs that look alike come from different tables or passages of the source.

What was measured:
[1] = tested on: tumor growth; assay: MTT anticancer activity of Y, X and hydrolysis products (FIG. 4C); format: cell-based
Protocol: (§1) MTT Assay. The procedure for MTT assay followed the method described by Carmichael et al. (1987) with modifications. The cells were seeded into a 96-well plate at concentration of 10,000/well for HTB-9, HeLa, H460, HCT116, T98G and OVCAR-3), 15,000/well for DU145, MCF-7, HepG2 and U2OS), and 40,000/well for K562 for 24 hours before drug-treatment. The cells were then exposed to the drugs for 48 hours (72 hours for HepG2 and U2OS, and 96 hours for MCF-7). After the drug-treatment, MTT (0.5 mg/mL) was added to cultures and incubated for an hour. The formazan (product of the reduction of tetrazolium by viable cells) formed and was dissolved with DMSO and the O.D. at 490 nm, and was measured by an ELISA reader. The MTT level of the cells before drug-treatment was also measured (T0). The % cell-growth (% G) is calculated as: % G=(TD−T0/TC−T0)×100(1), where TC or TD represents O.D. readings of control or drug-treated cells. When T0>TD, then the cytotoxicity (LC) expressed as % of the control is calculated as: % LC=(TD−T0/T0)×100(2).
(A) Alkaline Hydrolysis of Xanifolia-Y: 20 mg of Xanifolia-Y was dissolved in 0.5 mL of 1M NaOH. The solution was incubated in an 80° C. water bath for 4 hours. It was cooled to room temperature before being neutralized with 0.5 mL 1 N HCl (adjusted pH to about 3). The mixture was extracted with 2 mL 1-butanol 3 times. The butanol fractions were collected and lyophilized. The hydrolyzed saponin was further purified with HPLC in a C-18 column eluted with 25% acetonitrile.
(B) Acid Hydrolysis of Xanifolia-Y: 15 mg Xanifolia-Y was dissolved in 1 mL of Methanol. 1 mL of 2N HCl was then added. The mixture was refluxed in an 80° C. water bath for 5 hours. The solution was then neutralized by adding 2 mL of 1N NaOH (to a final pH 3-4). The aglycone was then extracted with ethylacetate 3 mL×3. The extracts were collected and pooled. Further isolation of aglycone (sugar-removed Xanifolia-Y) was achieved by HPLC with isocratic elution of 80% acetonitrile.

[2] = tested on: Fibronectin secretion from brain glioblastoma T98G cells; assay: Fibronectin secretion (Western blot), T98G cells; format: cell-based, human; conditions: for inhibition at 10 µg/mL: Homo sapiens, 10 ug/ml
[3] = tested on: Fibronectin secretion from bladder carcinoma cells (HTB-9); assay: Fibronectin secretion (Western blot), HTB-9 cells; format: cell-based, human; conditions: 10 ug/ml; for inhibition at 10 µg/mL: Homo sapiens
[4] = tested on: Fibronectin secretion from skin SK-Mel-5 cells; assay: Fibronectin secretion (Western blot), SK-MEL-5 cells; format: cell-based, human
[5] = tested on: Fibronectin secretion from liver HepG2 cells; assay: Fibronectin secretion (Western blot), HepG2 cells; format: cell-based, human; conditions: 10 ug/ml; for inhibition at 10 µg/mL: Homo sapiens, HepG2, HepG2 cells; for % inhibition of Fibronectin secretion: HepG2 cells
[6] = tested on: Fibronectin secretion from lung carcinoma cells (H460); assay: Fibronectin secretion (Western blot), H460 cells; format: cell-based, human; conditions: Homo sapiens, NCI-H460, H460 cells, 10 ug/ml
[7] = tested on: Fibronectin secretion from ES2 cells; assay: Fibronectin secretion (Western blot), ES2 cells; format: cell-based, human; conditions: for inhibition at 10 µg/mL: Homo sapiens, ES-2, ES2 cells; for Fibronectin secreted into medium, % of DMSO control: 24 hours
Protocol: Inhibition of Fibronectin secretion is physiological and the determination of its quantity is based on the following criteria: • 1. Fibronectin is secreted from viable cells. Only cell with over 85% viable cells after drug-treatment are employed in these experiments. The viable cells were determined by MTT assay. • 2. For comparison, the immuno-band intensity from each samples are normalized with cell mass. The cell mass was determined by the MTT assay and is assigned as a MTT unit for each cell sample.
Cells: ES2 cells were grew in T-25 flask with RPMI 1640 medium over night before drug-treatment. Drug-treatment: cells cultures were replaced with fresh RPMI medium with Xanifolia-Y (10 ug/ml final concentration) or DMSO (as control) at 0 hour. At 1, 2, 4, 8 and 24 hour, aliquot of culture medium was taken out for Fibronectin determination. Fibronectin was determined by Western blot with monoclonal antibody (SIGMA) specific to human Fibronectin only.
Drug-treatment: cells cultures were replaced with fresh RPMI medium containing Xanifolia-Y (10 ug/ml final concentration) or DMSO (as control) at 0 hour. At 4 hours (A) or 8 hour (B), culture medium was replaced with fresh culture medium without drug. At 2, 4, 8 and 24 hour, aliquot of culture medium was taken out for Fibronectin determination. Fibronectin (FN) was determined by Western blot with monoclonal antibody (SIGMA) specific only to human Fibronectin.
(§2) Drug-treatment: cells cultures were replaced with fresh RPMI medium containing Xanifolia-Y (10 ug/ml final concentration) or DMSO (as control) at 0 hour. At 2, and 18 hour, aliquot of culture medium was taken out for Fibronectin determination (Western blot method). Cell viability at 18 hours was determined by MTT assay. Cultures were replaced with RPMI medium with MTT and incubated for an hour. The formation of formazan was dissolved in DMSO and OD at 570 nm was measured.
Cells and Drug-treatment: same as previous experiments. After 7 or 24 hours, aliquot of culture medium was taken out for Fibronectin determination (Western blot method). Cell viability at 24 hours was determined by MTT assay.
Cells: ES2 cells were grew in RPMI 1640 medium over night before drug-treatment. Drug-treatment: cells cultures were replaced with fresh RPMI medium containing DMSO (as control) [D]; Xanifolia-Y (10 ug/ml) [Y]; or Paclitaxel 10 or 50 ng/ml [T10, ro T50]. After 24 hours, aliquot of culture medium was taken out for Fibronectin determination (Western blot method). Cell viability at 24 hours was determined by MTT assay.
The amount of Fibronectin secreted by cells into medium was determined by Western blot assay. The amount of Fibronectin secreted per cells basis was determined by dividing the Western-band intensity with the MTT unit.
Western Blot: Spent culture medium (0.6 ml) was mixed with SDS sample buffer (0.2 ml), boiled for 3 minutes before loading to SDS gel. Samples (60 ul/lane) were applied to a 6% SDS gel and electrophoresis was conducted with 100 volts for 2 hours. Protein was transferred to a nitrocellulose paper electrophoretically (30 min at 100 volts). The Western blot was incubated with the first antibody (mouse anti-FN, specific to human FN, SIGMA F0916) and second antibody (Anti-mouse IgG AP conjugated, Promega S3721). The immunobands were developed with BCIP/NBT color development system (Promega S3771).

[8] = tested on: swelling of rats' feet induced by Carrageenin; assay: Carrageenin-induced swollen feet model; format: in vivo, SD rats; conditions: positive control 10.0 mg/kg fed once;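 also: percent increase in foot volume over pre-inflammation volume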
Protocol: SD rats, male, weighing 163±18 g were used in the experiment. The tested animals are allowed to acclimate for a week. The rats drink water freely. The rats were randomly divided into 5 groups: control, positive control and 3 test groups, and each group had 8 rats. The dose for 3 groups of rats are 10, 20 and 40 mg/kg. Indometacin for the positive control is 10 mg/kg and fed once after modeling. The dose of CMC-Na for the control group is the same as each test group and fed into the stomach once a day before modeling for 5 days. The tested drug was fed into the stomach 10 minutes before the animal modeling (1 mL/100 g). The volumes of right foot of each rat were measured 0.5, 1, 2 and 4 hours before and after modeling. The volumes of the right hind feet were measured at a different time, 10 minutes after inflammation induced by subcutaneous injection (with syringe needle 7) of 0.05 mL of the 1% of Carrageenin/normal saline mixture into the feet. The Rate of swelling of the feet was calculated, compared with the controls and subject to a student t-test. Rate of swelling (E) (%)=Ltn−Lt0/Lt0×100% • Ltn: volume of foot after the inflammation • Lt0: volume of foot before the inflammation

[9] = tested on: ES2(ovarian) cells; assay: MTT assay ES2; format: cell-based, human; conditions: for viable cells by MTT units vs DMSO control: 24 hours
Protocol: as §1
Methods: ES2 cells were exposed to (i) Xanifolia-Y with concentrations of 40, 20, 10, 5, 2.5, and 1.25 ug/ml; or (ii) Paclitaxel with concentrations of […]; or (iii) Combined Xanifolia-Y and Paclitaxel with concentrations of each drug in same order (for example, 40 ug/ml Y plus 10 ng/ml T; 20 ug/ml Y plus 5 ng/ml T, etc. please see FIG. 28). Cells growth under these conditions was determined by the MTT assay.
as §2

CC1O[C@@H](OC2[C@H](OC3[C@H](O[C@H]4C(O[C@@H]5OC(CO)[C@H](O)[C@@H](O)C5O)[C@H](O[C@H]5CC[C@@]6(C)C(CC[C@]7(C)C6CC[C@]68O[C@H](O)[C@]9(C6CC(C)(C)[C@@H](O)[C@@H]9O)[C@H](O)C[C@]87C)C5(C)C)OC(C(=O)O)[C@H]4O)OC(CO)[C@H](O)[C@H]3O)OC(C)[C@H](O)[C@@H]2O)C(O)[C@@H](O)[C@H]1O (some centres unmarked) [AKOH-Mb5]
anticancer activity after alkaline hydrolysis [1]: lost anticancer activity

C/C=C(/C)C(=O)O[C@H]1[C@H](OC(=O)/C(C)=C\C)[C@@]2(CO)C(CC1(C)C)C1=CCC3[C@@]4(C)CC[C@H](O[C@@H]5OC(C(=O)O)[C@@H](O)C(O[C@@H]6OC[C@@H](O)C(O)C6O)C5O[C@@H]5OC(CO)[C@H](O)C(O)C5O)C(C)(C)C4CC[C@@]3(C)[C@]1(C)C[C@H]2O (some centres unmarked) [Ba1]
inhibition at 10 µg/mL [2]: 26%
inhibition at 10 µg/mL [3]: 25%
inhibition at 10 µg/mL ([4]; Homo sapiens, 10 ug/ml): 10%
inhibition at 10 µg/mL [5]: 33%
inhibition at 10 µg/mL [6]: 19%
inhibition at 10 µg/mL ([7]; 10 ug/ml): 30%

COc1ccc2c(c1)c(CC(=O)O)c(C)n2C(=O)c1ccc(Cl)cc1 [Indometacin, reference compound]
Swelling rate after administration (%) ([8]; 0.5 hour): 11.8%
Swelling rate after administration (%) ([8]; 1 hour): 14.7%
Swelling rate after administration (%) ([8]; 2 hours): 12.8%
Swelling rate after administration (%) ([8]; 4 hours): 10.7%

CC(=O)O[C@H]1C(=O)[C@@]2(C)[C@H]([C@H](OC(=O)c3ccccc3)[C@]3(O)C[C@H](OC(=O)[C@H](O)[C@@H](NC(=O)c4ccccc4)c4ccccc4)C(C)=C1C3(C)C)[C@]1(OC(C)=O)CO[C@@H]1C[C@@H]2O [Paclitaxel, reference compound]
viable cells by MTT units vs DMSO control ([9]; ES2, 10 ng/ml): 94%
viable cells by MTT units vs DMSO control ([9]; ES2, 50 ng/ml): 91%
IC50 ([9]; ES2 cells, used singly): 1.25 ng/mL (≈ 1.46 nM)
IC50 ([9]; Homo sapiens, ES-2, ES2 cells, combined with Xanifolia-Y, read-out: IC50 value for Paclitaxel when both drugs were used): 0.625 ng/mL
IC50 ([9]; Homo sapiens, ES-2, ES2 cells, used singly, read-out: IC50): 1.5 ng/mL (≈ 1.76 nM)
Fibronectin secreted into medium, % of DMSO control ([7]; ES2 cells, 10 ng/ml): 105%
Fibronectin secreted into medium, % of DMSO control ([7]; ES2 cells, 50 ng/ml): 97%
inhibition of Fibronectin secretion ([7]; ES2 cells, 10 to 50 ng/ml): no inhibition

C/C=C(/C)C(=O)O[C@H]1[C@H](OC(=O)/C(C)=C\C)[C@@]2(CO)C(CC1(C)C)C1=CCC3[C@@]4(C)CC[C@H](O[C@@H]5OC(C(=O)O)[C@@H](O)C(O)C5O[C@@H]5OC(CO)[C@H](O)C(O)C5O)C(C)(C)C4CC[C@@]3(C)[C@]1(C)[C@@H](O)[C@H]2O (some centres unmarked) [Xanifolia Y5]
% inhibition of Fibronectin secretion [5]: have inhibition effect
inhibition at 10 µg/mL ([7]; 10 ug/ml): 68%

C/C=C(/C)C(=O)O[C@H]1[C@H](O)[C@@]2(COC(=O)C(C)CC)C(CC1(C)C)C1=CCC3[C@@]4(C)CC[C@H](O[C@@H]5OC(C(=O)O)[C@@H](O)C(O[C@@H]6O[C@@H](CO)C(O)C6O)C5O[C@@H]5OC(CO)[C@H](O)C(O)C5O)C(C)(C)C4CC[C@@]3(C)[C@]1(C)[C@@H](O)[C@H]2O (stereo partly drawn) [Xanifolia Y7, 3-O-[β-D-galactopyranosyl-(1→2)]-α-L-arabinofuranosyl-(1→3)-β-D-glucuronopyranosyl-21-O-angeloyl-28-O-2-methylbutanoyl-3β, 15α, 16α, 21β, 22α, 28-hexahydroxyolean-12-ene]
inhibition at 10 µg/mL ([2]; T98G): 24%
inhibition at 10 µg/mL [3]: 60%
inhibition at 10 µg/mL [5]: 10%
inhibition at 10 µg/mL [6]: 18%
inhibition at 10 µg/mL ([7]; 10 ug/ml): 34%

beta-Escin [reference compound]
% inhibition of Fibronectin secretion ([2]; 20 ug/ml): 66%
growth of cells compared to the DMSO control (MTT) ([9]; ES2, 10 ug/ml (F13)): 90%
growth of cells compared to the DMSO control (MTT) ([9]; ES2, 20 ug/ml (F13)): 82%
% inhibition of Fibronectin secretion [3]: 47%
% inhibition of Fibronectin secretion ([4]; 20 ug/ml): 17%
% inhibition of Fibronectin secretion ([5]; listed as ES): have inhibition effect
% inhibition of Fibronectin secretion ([5]; listed as β-ES): 44%
% inhibition of Fibronectin secretion ([7]; ES2 cells, 10 ug/ml): 7%
Fibronectin secreted / FN band intensity, % of DMSO control ([7]; ES2 cells, 10 ug/ml): 93%
% inhibition of Fibronectin secretion ([7]; ES2 cells, 10 ug/ml, listed as β-ES): 19%
% inhibition of Fibronectin secretion ([7]; ES2 cells, 20 ug/ml): 48%
Fibronectin secreted / FN band intensity, % of DMSO control ([7]; ES2 cells, 20 ug/ml): 52%
